Target: T1, human recombinant IL-17A (Homo sapiens, UniProt Q16552)
T1 construct: purchased R&D Systems 7955-IL/CF
T1 sequence (Q16552 24-155): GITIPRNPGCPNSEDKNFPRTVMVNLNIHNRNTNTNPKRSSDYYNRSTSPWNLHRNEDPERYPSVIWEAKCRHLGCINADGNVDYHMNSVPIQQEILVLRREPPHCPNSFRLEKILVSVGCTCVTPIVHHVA
Assay: IL-17A AlphaLISA assay (block binding of IL-17A to its receptor IL-17RA)
Conditions: compounds pre-incubated with the IL-17A for 30 min (indicated by * in Table A); read-out: AlphaLISA pIC50 (converted)
Summary of the method: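 PBS with 0.05% Tween-20 and 0.1% BSA. IL-17A stock 7.5 nM, IL-17RA/Fc stock 5 nM; compound–cytokine pre-incubation 24 h at RT, or 30 min where marked, then 90 min with receptor. pIC50 from 4-parameter logistic AlphaLISA signal, normalised to DMSO and 6 μM reference inhibitor.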

Cn1nncc1C(=O)N[C@H](C(=O)Nc1ccc(-c2c(Cl)cnn2C)cn1)[C@H]1CC[C@H](C)CC1 [Example 200, N—((S)-2-((5-(4-chloro-1-methyl-1H-pyrazol-5-yl)pyridin-2-yl)amino)-1-((1r,4S)-4-methylcyclohexyl)-2-oxoethyl)-1-methyl-1H-1,2,3-triazole-5-carboxamide]
IC50: 398 nM

CCc1nocc1C(=O)N[C@H](C(=O)Nc1ccc(-c2c(Cl)cnn2C)cn1)[C@H]1CC[C@H](C)CC1 [Example 201, N—((S)-2-((5-(4-chloro-1-methyl-1H-pyrazol-5-yl)pyridin-2-yl)amino)-1-((1r,4S)-4-methylcyclohexyl)-2-oxoethyl)-3-ethylisoxazole-4-carboxamide]
IC50: 79.4 nM

CCc1nocc1C(=O)N[C@H](C(=O)Nc1ccc(-c2c(CO)cnn2C)cn1)C1CCCCCC1 [Example 202, (S)—N-(1-cycloheptyl-2-((5-(4-(hydroxymethyl)-1-methyl-1H-pyrazol-5-yl)pyridin-2-yl)amino)-2-oxoethyl)-3-ethylisoxazole-4-carboxamide]
IC50: 158 nM

CCc1nocc1C(=O)N[C@H](C(=O)Nc1ccc(-c2c(C)noc2C)nc1)[C@H]1CC[C@H](C)CC1 [Example 203, N—((S)-2-((6-(3,5-dimethylisoxazol-4-yl)pyridin-3-yl)amino)-1-((1r,4S)-4-methylcyclohexyl)-2-oxoethyl)-3-ethylisoxazole-4-carboxamide]
IC50: 79.4 nM

Cc1cnn(C)c1-c1ccc(NC(=O)[C@@H](NC(=O)c2ccnn2C(C)C)[C@H]2CC[C@H](C)CC2)cn1 [Example 204, N—((S)-2-((6-(1,4-dimethyl-1H-pyrazol-5-yl)pyridin-3-yl)amino)-1-((1r,4S)-4-methylcyclohexyl)-2-oxoethyl)-1-isopropyl-1H-pyrazole-5-carboxamide]
IC50: 200 nM

CCn1nccc1C(=O)N[C@H](C(=O)Nc1ccc(-c2c(CO)cnn2C)cn1)[C@H]1CC[C@H](C)CC1 [Example 205, 1-ethyl-N—((S)-2-((5-(4-(hydroxymethyl)-1-methyl-1H-pyrazol-5-yl)pyridin-2-yl)amino)-1-((1r,4S)-4-methylcyclohexyl)-2-oxoethyl)-1H-pyrazole-5-carboxamide]
IC50: 251 nM

Cc1noc(C)c1-c1ccc(NC(=O)[C@@H](NC(=O)c2ccnn2C(C)C)[C@H]2CC[C@H](C)CC2)cn1 [Example 206, N—((S)-2-((6-(3,5-dimethylisoxazol-4-yl)pyridin-3-yl)amino)-1-((1r,4S)-4-methylcyclohexyl)-2-oxoethyl)-1-isopropyl-1H-pyrazole-5-carboxamide]
IC50: 126 nM

Cc1n[nH]c(C)c1-c1ccc(NC(=O)[C@@H](NC(=O)c2ccnn2C)C2CCCCC2)cn1 [Example 207, (S)—N-(1-cyclohexyl-2-((6-(3,5-dimethyl-1H-pyrazol-4-yl)pyridin-3-yl)amino)-2-oxoethyl)-1-methyl-1H-pyrazole-5-carboxamide]
IC50: 501 nM

CCn1nccc1C(=O)N[C@H](C(=O)Nc1ccc(-c2c(C)n[nH]c2C)nc1)C1CCCCCC1 [Example 208, (S)—N-(1-cycloheptyl-2-((6-(3,5-dimethyl-1H-pyrazol-4-yl)pyridin-3-yl)amino)-2-oxoethyl)-1-ethyl-1H-pyrazole-5-carboxamide]
IC50: 63.1 nM

Cc1n[nH]c(C)c1-c1ccc(NC(=O)[C@@H](NC(=O)c2cnnn2C)C2CCCCCC2)cn1 [Example 209, (S)—N-(1-cycloheptyl-2-((6-(3,5-dimethyl-1H-pyrazol-4-yl)pyridin-3-yl)amino)-2-oxoethyl)-1-methyl-1H-1,2,3-triazole-5-carboxamide]
IC50: 794 nM

CCc1nocc1C(=O)N[C@H](C(=O)Nc1ccc(-c2c(C)n[nH]c2C)nc1)C1CCCCCC1 [Example 210, (S)—N-(1-cycloheptyl-2-((6-(3,5-dimethyl-1H-pyrazol-4-yl)pyridin-3-yl)amino)-2-oxoethyl)-3-ethylisoxazole-4-carboxamide]
IC50: 63.1 nM

Cc1n[nH]c(C)c1-c1ccc(NC(=O)[C@@H](NC(=O)c2ccnn2C)[C@H]2CC[C@H](C)CC2)cn1 [Example 211, N—((S)-2-((6-(3,5-dimethyl-1H-pyrazol-4-yl)pyridin-3-yl)amino)-1-((1r,4S)-4-methylcyclohexyl)-2-oxoethyl)-1-methyl-1H-pyrazole-5-carboxamide]
IC50: 158 nM

CCn1nccc1C(=O)N[C@H](C(=O)Nc1ccc(-c2c(C)n[nH]c2C)nc1)[C@H]1CC[C@H](C)CC1 [Example 212, N—((S)-2-((6-(3,5-dimethyl-1H-pyrazol-4-yl)pyridin-3-yl)amino)-1-((1r,4S)-4-methylcyclohexyl)-2-oxoethyl)-1-ethyl-1H-pyrazole-5-carboxamide]
IC50: 100 nM

CCc1nocc1C(=O)N[C@H](C(=O)Nc1ccc(-c2c(C)n[nH]c2C)nc1)[C@H]1CC[C@H](C)CC1 [Example 213, N—((S)-2-((6-(3,5-dimethyl-1H-pyrazol-4-yl)pyridin-3-yl)amino)-1-((1r,4S)-4-methylcyclohexyl)-2-oxoethyl)-3-ethylisoxazole-4-carboxamide]
IC50: 100 nM

Cc1cc(=O)n(C)c(C)c1-c1ccc(NC(=O)[C@@H](NC(=O)c2ccnn2C)C2CCCCCC2)nc1 [Example 214, (S)—N-(1-cycloheptyl-2-oxo-2-((1′,2′,4′-trimethyl-6′-oxo-1′,6′-dihydro-[3,3′-bipyridin]-6-yl)amino)ethyl)-1-methyl-1H-pyrazole-5-carboxamide]
IC50: 158 nM

Cc1cc(=O)n(C)c(C)c1-c1ccc(NC(=O)[C@@H](NC(=O)c2ccnn2C)[C@H]2CC[C@H](C)CC2)nc1 [Example 215, 1-methyl-N—((S)-1-((1r,4S)-4-methylcyclohexyl)-2-oxo-2-((1′,2′,4′-trimethyl-6′-oxo-1′,6′-dihydro-[3,3′-bipyridin]-6-yl)amino)ethyl)-1H-pyrazole-5-carboxamide]
IC50: 126 nM

Cc1nn(C)c(C)c1-c1ccc(NC(=O)[C@@H](NC(=O)c2ccnn2C)C2CCCCCC2)nc1 [Example 216, (S)—N-(1-cycloheptyl-2-oxo-2-((5-(1,3,5-trimethyl-1H-pyrazol-4-yl)pyridin-2-yl)amino)ethyl)-1-methyl-1H-pyrazole-5-carboxamide]
IC50: 501 nM

Cc1nn(C)c(C)c1-c1ccc(NC(=O)[C@@H](NC(=O)c2ccnn2C)[C@H]2CC[C@H](C)CC2)nc1 [Example 217, 1-methyl-N—((S)-1-((1r,4S)-4-methylcyclohexyl)-2-oxo-2-((5-(1,3,5-trimethyl-1H-pyrazol-4-yl)pyridin-2-yl)amino)ethyl)-1H-pyrazole-5-carboxamide]
IC50: 501 nM

Cc1n[nH]c(C)c1-c1ccc(NC(=O)[C@@H](NC(=O)c2ccnn2C)C2CCCCCC2)cn1 [Example 218, (S)—N-(1-cycloheptyl-2-((6-(3,5-dimethyl-1H-pyrazol-4-yl)pyridin-3-yl)amino)-2-oxoethyl)-1-methyl-1H-pyrazole-5-carboxamide]
IC50: 158 nM

Cn1nccc1C(=O)N[C@H](C(=O)Nc1ccc(-c2c(C(F)(F)F)cnn2C)cn1)[C@H]1CC[C@H](C)CC1 [Example 219, 1-methyl-N—((S)-2-((5-(1-methyl-4-(trifluoromethyl)-1H-pyrazol-5-yl)pyridin-2-yl)amino)-1-((1r,4S)-4-methylcyclohexyl)-2-oxoethyl)-1H-pyrazole-5-carboxamide]
IC50: 126 nM

Cc1cnn(C)c1-c1ccc(NC(=O)C(NC(=O)c2ccnn2C)C2C3(CC3)CCC23CC3)nc1 (stereo not drawn) [Example 220, N-(2-((5-(1,4-dimethyl-1H-pyrazol-5-yl)pyridin-2-yl)amino)-1-(dispiro[2.1.2^5.2^3]nonan-4-yl)-2-oxoethyl)-1-methyl-1H-pyrazole-5-carboxamide]
IC50: 31.6 nM
